One block for each compound: values may come before it.
SMILES: Clc1ccc(OCCCBr)cc1
solubility (mole fraction) (in ethanol, 273.15 K): 0.0219
solubility (mole fraction) (in ethanol, 278.15 K): 0.0281
solubility (mole fraction) (in ethanol, 283.15 K): 0.0366
solubility (mole fraction) (in ethanol, 288.15 K): 0.0488
solubility (mole fraction) (in ethanol, 293.15 K): 0.0658
solubility (mole fraction) (in ethanol, 298.15 K): 0.0933
solubility (mole fraction) (in ethanol, 303.15 K): 0.142

SMILES: C1CN2CN3CCN(CN1C3)C2
solubility (mole fraction) (in water, 275 K): 0.0905
solubility (mole fraction) (in water, 277 K): 0.0925
solubility (mole fraction) (in water, 279 K): 0.0946
solubility (mole fraction) (in water, 283 K): 0.0999
solubility (mole fraction) (in water, 288 K): 0.105
solubility (mole fraction) (in water, 293 K): 0.109
solubility (mole fraction) (in water, 298 K): 0.113
solubility (mole fraction) (in water, 303 K): 0.119

SMILES: O=[N+]([O-])c1ccc(N/N=C/c2ccco2)c([N+](=O)[O-])c1
solubility (mole fraction) (in water, 298.15 K): 1.4e-08

SMILES: Cc1ccc(-c2ncc(Cl)cc2-c2ccc(S(C)(=O)=O)cc2)cn1
solubility (mole fraction) (in methanol, 298.2 K): 0.0379
solubility (mole fraction) (in propylene glycol, 298.2 K): 0.0605
solubility (mole fraction) (in water, 298.2 K): 1.58e-05

SMILES: Cc1c(O)c(=O)ccn1C
solubility (mole fraction) (in NMP, 298.2 K): 0.002
solubility (mole fraction) (in PEG-400, 298.2 K): 0.00864
solubility (mole fraction) (in ethanol, 298.2 K): 0.0014
solubility (mole fraction) (in ethylene glycol, 298.2 K): 0.00737
solubility (mole fraction) (in propylene glycol, 298.2 K): 0.00563

SMILES: CC1(C)S[C@@H]2[C@H](NC(=O)COc3ccccc3)C(=O)N2[C@H]1C(=O)[O-].[K+]
solubility (mole fraction) (in ethanol, 278.15 K): 0.00047
solubility (mole fraction) (in ethanol, 283.15 K): 0.000485
solubility (mole fraction) (in ethanol, 293.15 K): 0.000866
solubility (mole fraction) (in ethanol, 298.15 K): 0.00117
solubility (mole fraction) (in ethanol, 303.15 K): 0.00207
solubility (mole fraction) (in ethanol, 308.15 K): 0.0029
solubility (mole fraction) (in ethanol, 313.15 K): 0.00428

SMILES: CN1C(C(=O)Nc2ccccn2)=C(O)c2sc(Cl)cc2S1(=O)=O
solubility (mole fraction) (in ethanol, 298.15 K): 1.3e-05
solubility (mole fraction) (in water, 298.15 K): 3e-06

The next lines start with the values.

solubility (mole fraction) (in n-propyl acetate, 303.2 K): 0.000791
solubility (mole fraction) (in n-propyl acetate, 313.2 K): 0.000934
solubility (mole fraction) (in n-propyl acetate, 323.2 K): 0.00108
solubility (mole fraction) (in n-propyl acetate, 333.2 K): 0.00132
solubility (mole fraction) (in n-propyl acetate, 343.2 K): 0.00138
solubility (mole fraction) (in n-propyl acetate, 353.2 K): 0.0018
solubility (mole fraction) (in n-propyl acetate, 363.2 K): 0.00215
SMILES: O=C(O)c1cccc(C(=O)O)c1

solubility (mole fraction) (in water, 298.15 K): 0.0143
solubility (mole fraction) (in water, 303.15 K): 0.0168
solubility (mole fraction) (in water, 308.15 K): 0.0199
solubility (mole fraction) (in water, 313.15 K): 0.0231
solubility (mole fraction) (in water, 318.15 K): 0.0269
SMILES: NCCS(=O)(=O)O

solubility (mole fraction) (in water, 286.65 K): 1.1e-05
solubility (mole fraction) (in water, 295.45 K): 1.03e-05
SMILES: CCCCC

solubility (mole fraction) (in ethyl acetate, 278.15 K): 0.0148
solubility (mole fraction) (in ethyl acetate, 283.15 K): 0.0274
solubility (mole fraction) (in ethyl acetate, 288.15 K): 0.0387
solubility (mole fraction) (in ethyl acetate, 293.15 K): 0.0512
solubility (mole fraction) (in ethyl acetate, 298.15 K): 0.0834
SMILES: OCCCCCCO

solubility (mole fraction) (in water, 283.15 K): 0.0035
solubility (mole fraction) (in water, 288.15 K): 0.00384
solubility (mole fraction) (in water, 293.15 K): 0.00417
solubility (mole fraction) (in water, 298.15 K): 0.00459
solubility (mole fraction) (in water, 303.15 K): 0.0051
solubility (mole fraction) (in water, 308.15 K): 0.00562
solubility (mole fraction) (in water, 313.15 K): 0.00613
solubility (mole fraction) (in water, 318.15 K): 0.00667
SMILES: N[C@@H](Cc1cnc[nH]1)C(=O)O

solubility (mole fraction) (in methanol, 293.2 K): 0.0076
solubility (mole fraction) (in methanol, 298.2 K): 0.0092
solubility (mole fraction) (in methanol, 303.2 K): 0.0106
solubility (mole fraction) (in methanol, 308.2 K): 0.0124
solubility (mole fraction) (in methanol, 313.2 K): 0.0158
SMILES: NC(CO)(CO)CO
